This is an account of results in patent publication US8778966B2, “Quinolinone derivatives as PARP and tank inhibitors” (Janssen Pharmaceutica, NV, priority 2007, dated 2014).

One test has as its system HCT116 cells. Kind of test: Mitotic arrest assay on HCT116 cells (phospho-histone H3 Ser10). The test is classed as cell-based, human. To be noted: lowest active dose; for minimal effective concentration: Homo sapiens, HCT-116, HCT116 cells, read-out: Mitotic arrest HCT116 LAD (converted). The source says: Phosphorylation of histone H3 is tightly correlated with chromosome condensation during both mitosis and meiosis. The assay is a cellular immunosorbent assay wherein the sole antibody is labelled with a detectable conjugate. The phospho-histone H3 (ser10) antibody detects endogenous levels of histone H3 only when phosphorylated at serine 10. […] In parallel with antibody detection, the nuclei of the cells are stained with Hoechst 33342 for cell-counting. Cells are detected and analysed using the InCell Analyzer 1000 from GE Healthcare. Since both the antibody-detection as well as the Hoechst-staining are in the nucleus, the dual area object intensity algorithm is used for analysing the wells.
All compounds tested were dissolved in DMSO and further dilutions were made in culture medium. Final DMSO concentrations never exceeded 0.1% (v/v).
HCT116 cells (supplier: ATCC) (human colon carcinoma cell line) were cultivated in Mc Coy's 5 A medium (supplier: Gibco) supplemented with 10% foetal calf serum (FCS), 2 mM L-glutamine and gentamycin at 37° C. in a humidified incubator with 5% CO2.
HCT116 cells were seeded at 20.000 cells per well in a 96 well plate (black/clear bottom, poly-D-lysine coated, supplier Greiner), cultured overnight to adhere to the bottom of the plate and treated with compound for 6 hours at 37° C. in a humidified incubator. After incubation, the medium was removed and cells were fixed using 100 μl/well formaldehyde (Accustain®, Formaline solution 10% neutral buffered, contains 4% formaldehyde w/v, supplier: Sigma) was added. After incubation for 15 minutes at room temperature, the formaldehyde was removed and cells were incubated with methanol (−20° C.) for 15 minutes at room temperature. After incubation, cells were washed once with phosphate-buffered saline (PBS —CaCl2, —MgCl2, suppier: Gibco)/0.05% Tween 20. The anti-phospho-histone H3 (Ser10) Alexa Fluor 488 antibody (supplier: Cell signalling) is used for detection of the cells inmitosis. The antibody was diluted 1/50 in 5% bovine serum albumins (BSA) and 50 μl/well was used for incubation overnight at room temperature in the dark.
A 1/2000 dilution of Hoechtst 33342 (10 mg/ml, supplier: Invitrogen) was made and 100 μl/well was added for at least 30 minutes before acquiring images. The absorbance at dual wavelengths of 360/480 nm was measured using the InCell Analyzer 1000 from GE Healthcare and the results were then analyzed.
For each experiment, controls (containing no drug) and a blank incubation (containing no cells or drugs) were run in parallel. Analysis was done in triplicate. Low cell count wells were invalidated. The blank value was subtracted from all control and sample values and divided by the standard deviation of the measurements. The compounds were considered active when the obtained value (sigma) was >5. Herein the effects of test compounds are expressed as the lowest dose giving a sigma value of >5 (LAD) (see table F-2).

Another test has as its system PC3 cells. The test is described as follows: EB1 Comet (microtubule disruption) assay. The test is classed as cell-based, human. The following applies: 1 hour treatment; for minimal effective concentration: Homo sapiens, PC-3, 1 h, read-out: EB1 pLAC (converted). How it is done: The Eb1 Comet assay relies on the detection of the Eb1 protein at the plus end of polymerizing microtubules (Mimori-Kiyosue, 2000) using indirect immunofluorescence. Disruption of microtubule dynamics through de-polymerization or stabilization results in a de-localization of Eb1 from the growing microtubule ends and this is visualized by the disappearance of Eb1 containing cytoplasmic foci.
Briefly, human prostate cancer PC3 cells obtained from the American Type Culture Collection were grown in 96-well plates (Greiner, cat. no. 655090) in HAM's F12 medium as recommended by the provider (ATCC). The cells were treated for 1 hour at 37° C. with compounds dissolved in DMSO (0.6% final DMSO concentration). The culture medium was then removed by aspiration and the cells were fixed by adding cold methanol (−20 C). After a 15 min. incubation at −20 C, the cells were washed twice with DPBS (Gibco) containing 0.5% Triton X-100. Mouse Eb1 antibody (BD Transduction Laboratories, cat. no. 610534) was added to the cells (1/250 dilution in DPBS containing 1% BSA) and incubated overnight at room temperature. The antibody was subsequently removed and the cells washed twice with DPBS, 0.5% Triton X-100. Secondary goat anti-mouse antibody conjugated to Alexa 488 fluorescent dye (Molecular Probes) was added at a 1/500 dilution in DPBS, 1% BSA and incubated for 1 hour at 37 C. The cells were washed twice with DPBS, 0.5% Triton X-100 and then DPBS containing 0.5% Triton X-100 and 1/5000 Hoechst 33342 (Molecular Probes) was added. Microscopy based Eb1 foci visualization was carried out using an IN Cell Analyser 1000 (Amersham Biosciences) using a 20× objective. Compound dependent microtubule disruption was visually determined by the disappearance in Eb1 foci. The lowest active concentration (LAC) was determined as the concentration where Eb1 foci were absent in at least 50% of the treated cells.

For `C#Cc1cccc(CC(C)(C#N)c2ccc3cc(CC)c(=O)[nH]c3c2)c1` (racemic) [Compound 168], the minimal effective concentration with HCT116 cells was 0.0316 µM; in the test on PC3 cells, 0.1 µM.
Consider `CCc1cc2ccc(C(C)(C#N)CC3COc4ccccc4O3)cc2[nH]c1=O` (single isomer, unassigned) [Compound 48], for which the Mitotic arrest HCT116 LAD with HCT116 cells (HCT116 cells, the values are: pLAD (−log M lowest active dose)) worked out at 6.5. In addition, in the test on PC3 cells, the minimal effective concentration is 1 µM.
With `Cc1cc2ccc([C@@](C)(C#N)CCOc3ccccc3)cc2[nH]c1=O` (single isomer, unassigned) [Compound 164], the minimal effective concentration is 0.1 µM in the test with HCT116 cells and 0.316 µM in the test on PC3 cells.
The corresponding values for `CCc1cc2ccc(C(C)(C#N)Cc3cccc(-c4nc(C)no4)c3)cc2[nH]c1=O` (stereo not drawn) [Compound 11] are 0.316 µM and 1 µM.
As to `CCc1cc2ccc(C(C)(C#N)Cc3cccc(C(=O)OC)c3)cc2[nH]c1=O` (stereo not drawn) [Compound 12], the minimal effective concentration in the test with HCT116 cells is 0.1 µM; with PC3 cells it was 0.0316 µM.
`CCc1cc2ccc(C(C)(C#N)Cc3cccc(N)c3)cc2[nH]c1=O` (stereo not drawn) [Compound 15]: the minimal effective concentration was 1 µM with HCT116 cells and 3.16 µM with PC3 cells.
The corresponding values for `CCc1cc2ccc(C(C)(C#N)Cc3ccccc3Br)cc2[nH]c1=O` (stereo not drawn) [Compound 104] are 0.316 µM and 0.316 µM.
The corresponding values for `CCc1cc2ccc(C(C)(C#N)Cc3ccccc3C)cc2[nH]c1=O` (stereo not drawn) [Compound 105] are 0.1 µM and 0.316 µM.
In the case of `CCc1cc2ccc(C(C)(C#N)Cc3ccccc3F)cc2[nH]c1=O` (stereo not drawn) [Compound 106], the minimal effective concentration in the test on HCT116 cells was 0.1 µM; in the test on PC3 cells, 0.316 µM.
The corresponding values for `CCc1cc2ccc(C(C)(C#N)Cc3cccc(C)c3)cc2[nH]c1=O` (stereo not drawn) [Compound 107] are 0.316 µM and 1 µM.
The corresponding values for `CCc1cc2ccc(C(C)(C#N)Cc3cccc(C(F)(F)F)c3)cc2[nH]c1=O` (stereo not drawn) [Compound 109] are 0.316 µM and 3.16 µM.
`CCc1cc2ccc(C(C)(C#N)Cc3cccc(OC(F)(F)F)c3)cc2[nH]c1=O` (stereo not drawn) [Compound 110]: the minimal effective concentration with HCT116 cells was 0.316 µM; with PC3 cells, 0.1 µM.
The corresponding values for `CCc1cc2ccc(C(C)(C#N)Cc3cccc(F)c3)cc2[nH]c1=O` (stereo not drawn) [Compound 112] are 0.316 µM and 1 µM.
The corresponding values for `CCc1cc2ccc(C(C)(C#N)Cc3cccc(OC)c3)cc2[nH]c1=O` (stereo not drawn) [Compound 113] are 0.316 µM and greater than 10 µM.
The corresponding values for `CCc1cc2ccc(C(C)(C#N)Cc3ccc(OC(F)(F)F)cc3)cc2[nH]c1=O` (stereo not drawn) [Compound 114] are 1 µM and 1 µM.
For `CCc1cc2ccc(C(C)(C#N)Cc3c(F)c(F)c(F)c(F)c3F)cc2[nH]c1=O` (stereo not drawn) [Compound 116], the minimal effective concentration in the test on HCT116 cells was 0.1 µM; in the test with PC3 cells it was 0.316 µM.
For `CCc1cc2ccc(C(C)(C#N)Cc3ccc(Br)cc3)cc2[nH]c1=O` (stereo not drawn) [Compound 118], the minimal effective concentration was 1 µM with HCT116 cells and 3.16 µM in the test with PC3 cells.
The corresponding values for `CCc1cc2ccc(C(C)(C#N)Cc3ccc(OC)cc3)cc2[nH]c1=O` (stereo not drawn) [Compound 119] are 1 µM and 3.16 µM.
The corresponding values for `CCc1cc2ccc(C(C)(C#N)Cc3cccc(F)c3F)cc2[nH]c1=O` (stereo not drawn) [Compound 120] are 0.1 µM and 0.316 µM.
With `CCc1cc2ccc(C(C)(C#N)Cc3cccc(Cl)c3Cl)cc2[nH]c1=O` (stereo not drawn) [Compound 121], the minimal effective concentration with HCT116 cells and with PC3 cells was 0.316 µM in each case.
Consider `CCc1cc2ccc(C(C)(C#N)Cc3ccc4ccccc4c3)cc2[nH]c1=O` (stereo not drawn) [Compound 122], for which the results for the minimal effective concentration with HCT116 cells and in the test with PC3 cells were 0.316 µM and 1 µM, respectively.
For the compound `CCc1cc2ccc(C(C)(C#N)Cc3ccc4c(c3)nnn4C)cc2[nH]c1=O` (stereo not drawn) [Compound 123], the minimal effective concentration in the test with HCT116 cells and with PC3 cells was 3.16 µM throughout.
For the compound `CCc1cc2ccc(C(C)(C#N)Cc3ccc4c(c3)OCCO4)cc2[nH]c1=O` (stereo not drawn) [Compound 124], the minimal effective concentration was 0.316 µM in the test with HCT116 cells and 1 µM in the test with PC3 cells.
The corresponding values for `CCc1cc2ccc(C(C)(C#N)Cc3cc(C)cc(C)c3)cc2[nH]c1=O` (stereo not drawn) [Compound 125] are 0.1 µM and 0.1 µM.
The corresponding values for `CCc1cc2ccc(C(C)(C#N)Cc3cc(F)cc(Cl)c3)cc2[nH]c1=O` (stereo not drawn) [Compound 126] are 0.1 µM and 0.316 µM.
The corresponding values for `CCc1cc2ccc(C(C)(C#N)Cc3cc(F)cc(C(F)(F)F)c3)cc2[nH]c1=O` (stereo not drawn) [Compound 127] are 0.316 µM and 1 µM.
For `CCc1cc2ccc(C(C)(C#N)Cc3cc(F)cc(F)c3)cc2[nH]c1=O` (stereo not drawn) [Compound 128], the minimal effective concentration in the test on HCT116 cells was 0.1 µM. The “EB1 pLAC” value with PC3 cells turned out to be 7.5.
Consider `CCc1cc2ccc(C(C)(C#N)Cc3cccc(S(C)(=O)=O)c3)cc2[nH]c1=O` (stereo not drawn) [Compound 129], for which the results for the minimal effective concentration in the test with HCT116 cells and with PC3 cells were 0.316 µM and 1 µM, respectively.
The corresponding values for `CCc1cc2ccc(C(C)(C#N)Cc3cccc(Cl)c3F)cc2[nH]c1=O` (stereo not drawn) [Compound 130] are 0.1 µM and 0.1 µM.
With `CCc1cc2ccc(C(C)(C#N)Cc3cccc(C)c3F)cc2[nH]c1=O` (stereo not drawn) [Compound 132], the minimal effective concentration was 0.1 µM in the test on HCT116 cells and 0.316 µM in the test with PC3 cells.
The corresponding values for `CCc1cc2ccc(C(C)(C#N)Cc3cccc(C(F)(F)F)c3F)cc2[nH]c1=O` (stereo not drawn) [Compound 134] are 0.316 µM and 1 µM.
As for `CCc1cc2ccc(C(C)(C#N)Cc3c(Cl)cccc3Cl)cc2[nH]c1=O` (stereo not drawn) [Compound 135], the values for the minimal effective concentration in the test with HCT116 cells and in the test on PC3 cells were 0.2 µM and 1 µM, respectively.
The corresponding values for `CCc1cc2ccc(C(C)(C#N)Cc3c(Cl)cccc3Br)cc2[nH]c1=O` (stereo not drawn) [Compound 136] are 0.316 µM and 1 µM.
For the compound `CCc1cc2ccc(C(C)(C#N)Cc3ccc(F)cc3F)cc2[nH]c1=O` (stereo not drawn) [Compound 137], the minimal effective concentration is 0.316 µM with HCT116 cells and 1 µM in the test with PC3 cells.
As to `CCc1cc2ccc(C(C)(C#N)Cc3c(F)cccc3F)cc2[nH]c1=O` (stereo not drawn) [Compound 138], the minimal effective concentration is 0.2 µM in the test with HCT116 cells and 1 µM with PC3 cells.
The corresponding values for `CCc1cc2ccc(C(C)(C#N)Cc3ccc(F)cc3Br)cc2[nH]c1=O` (stereo not drawn) [Compound 139] are 0.1 µM and 0.316 µM.
